In patent US8192962B2, “Processes for detecting toxic substances” (Daikin Industries, Ltd., priority 2001, dated 2012):

System: Genes belonging to other category
Test: DNA chip mRNA expression in yeast, genes belonging to other category (Table 9)
Format: cell-based, Saccharomyces cerevisiae S288C
Summary of the method: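 Chemical exposure: 2 h, log-phase S. cerevisiae S288C, YPD, 25° C., dose set to inhibit growth without death. Profiling: mRNA labeled by reverse transcription with Cy3- or Cy5-dUTP, hybridized to whole-genome array. Output: fluorescence ratio against untreated culture.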

## S=C([S-])NCCNC(=S)[S-].[Zn+2] [(11), zinc N,N′-ethylenebis(dithiocarbamate)]
Yeast gene YNL083W
  The level of expressed mRNA in the presence of chemical substance/The level of expressed mRNA in the absence of chemical substance: 0.9
Yeast gene YNL093W
  The level of expressed mRNA in the presence of chemical substance/The level of expressed mRNA in the absence of chemical substance: 1.6
Yeast gene YNL135C
  The level of expressed mRNA in the presence of chemical substance/The level of expressed mRNA in the absence of chemical substance: 0.7
Yeast gene YNL147W
  The level of expressed mRNA in the presence of chemical substance/The level of expressed mRNA in the absence of chemical substance: 1.2
Yeast gene YNL196C
  The level of expressed mRNA in the presence of chemical substance/The level of expressed mRNA in the absence of chemical substance: 0.7
Yeast gene YNL333W
  The level of expressed mRNA in the presence of chemical substance/The level of expressed mRNA in the absence of chemical substance: 2.0
Yeast gene YNR010W
  The level of expressed mRNA in the presence of chemical substance/The level of expressed mRNA in the absence of chemical substance: 1.4
Yeast gene YNR030W
  The level of expressed mRNA in the presence of chemical substance/The level of expressed mRNA in the absence of chemical substance: 1.2
Yeast gene YNR034W
  The level of expressed mRNA in the presence of chemical substance/The level of expressed mRNA in the absence of chemical substance: 1.3
Yeast gene YNR035C
  The level of expressed mRNA in the presence of chemical substance/The level of expressed mRNA in the absence of chemical substance: 1.5
Yeast gene YNR047W
  The level of expressed mRNA in the presence of chemical substance/The level of expressed mRNA in the absence of chemical substance: 0.6
Yeast gene YNR069C
  The level of expressed mRNA in the presence of chemical substance/The level of expressed mRNA in the absence of chemical substance: 2.5
Yeast gene YOL005C
  The level of expressed mRNA in the presence of chemical substance/The level of expressed mRNA in the absence of chemical substance: 1.6
Yeast gene YOL013C
  The level of expressed mRNA in the presence of chemical substance/The level of expressed mRNA in the absence of chemical substance: 1.4
Yeast gene YOL164W
  The level of expressed mRNA in the presence of chemical substance/The level of expressed mRNA in the absence of chemical substance: 1.0
Yeast gene YOR003W
  The level of expressed mRNA in the presence of chemical substance/The level of expressed mRNA in the absence of chemical substance: 0.7
Yeast gene YOR023C
  The level of expressed mRNA in the presence of chemical substance/The level of expressed mRNA in the absence of chemical substance: 0.9
Yeast gene YOR036W
  The level of expressed mRNA in the presence of chemical substance/The level of expressed mRNA in the absence of chemical substance: 1.3
Yeast gene YOR058C
  The level of expressed mRNA in the presence of chemical substance/The level of expressed mRNA in the absence of chemical substance: 1.4
Yeast gene YOR117W
  The level of expressed mRNA in the presence of chemical substance/The level of expressed mRNA in the absence of chemical substance: 1.2
Yeast gene YOR124C
  The level of expressed mRNA in the presence of chemical substance/The level of expressed mRNA in the absence of chemical substance: 1.2
Yeast gene YOR132W
  The level of expressed mRNA in the presence of chemical substance/The level of expressed mRNA in the absence of chemical substance: 1.3
Yeast gene YOR148C
  The level of expressed mRNA in the presence of chemical substance/The level of expressed mRNA in the absence of chemical substance: 1.3
Yeast gene YOR157C
  The level of expressed mRNA in the presence of chemical substance/The level of expressed mRNA in the absence of chemical substance: 1.6
Yeast gene YOR181W
  The level of expressed mRNA in the presence of chemical substance/The level of expressed mRNA in the absence of chemical substance: 1.0
Yeast gene YOR185C
  The level of expressed mRNA in the presence of chemical substance/The level of expressed mRNA in the absence of chemical substance: 1.2
Yeast gene YOR198C
  The level of expressed mRNA in the presence of chemical substance/The level of expressed mRNA in the absence of chemical substance: 1.4
Yeast gene YOR230W
  The level of expressed mRNA in the presence of chemical substance/The level of expressed mRNA in the absence of chemical substance: 1.6
Yeast gene YOR259C
  The level of expressed mRNA in the presence of chemical substance/The level of expressed mRNA in the absence of chemical substance: 1.0
Yeast gene YOR261C
  The level of expressed mRNA in the presence of chemical substance/The level of expressed mRNA in the absence of chemical substance: 2.1
Yeast gene YOR265W
  The level of expressed mRNA in the presence of chemical substance/The level of expressed mRNA in the absence of chemical substance: 1.3
Yeast gene YOR288C
  The level of expressed mRNA in the presence of chemical substance/The level of expressed mRNA in the absence of chemical substance: 1.4
Yeast gene YOR298W
  The level of expressed mRNA in the presence of chemical substance/The level of expressed mRNA in the absence of chemical substance: 0.1
Yeast gene YOR312C
  The level of expressed mRNA in the presence of chemical substance/The level of expressed mRNA in the absence of chemical substance: 0.8
Yeast gene YOR355W
  The level of expressed mRNA in the presence of chemical substance/The level of expressed mRNA in the absence of chemical substance: 1.2
Yeast gene YOR383C
  The level of expressed mRNA in the presence of chemical substance/The level of expressed mRNA in the absence of chemical substance: 1.4
Yeast gene YPL089C
  The level of expressed mRNA in the presence of chemical substance/The level of expressed mRNA in the absence of chemical substance: 0.9
Yeast gene YPL105C
  The level of expressed mRNA in the presence of chemical substance/The level of expressed mRNA in the absence of chemical substance: 0.6
Yeast gene YPL109C
  The level of expressed mRNA in the presence of chemical substance/The level of expressed mRNA in the absence of chemical substance: −0.2
Yeast gene YPL149W
  The level of expressed mRNA in the presence of chemical substance/The level of expressed mRNA in the absence of chemical substance: 1.2
Yeast gene YPL154C
  The level of expressed mRNA in the presence of chemical substance/The level of expressed mRNA in the absence of chemical substance: 1.8
Yeast gene YPL177C
  The level of expressed mRNA in the presence of chemical substance/The level of expressed mRNA in the absence of chemical substance: 1.4
Yeast gene YPL230W
  The level of expressed mRNA in the presence of chemical substance/The level of expressed mRNA in the absence of chemical substance: 3.1
Yeast gene YPR028W
  The level of expressed mRNA in the presence of chemical substance/The level of expressed mRNA in the absence of chemical substance: 1.4
Yeast gene YPR066W
  The level of expressed mRNA in the presence of chemical substance/The level of expressed mRNA in the absence of chemical substance: 0.9
Yeast gene YPR081C
  The level of expressed mRNA in the presence of chemical substance/The level of expressed mRNA in the absence of chemical substance: 0.9
Yeast gene YPR103W
  The level of expressed mRNA in the presence of chemical substance/The level of expressed mRNA in the absence of chemical substance: 0.9
Yeast gene YPR108W
  The level of expressed mRNA in the presence of chemical substance/The level of expressed mRNA in the absence of chemical substance: 1.8
Yeast gene YPR155C
  The level of expressed mRNA in the presence of chemical substance/The level of expressed mRNA in the absence of chemical substance: 0.9
Yeast gene YPR185W
  The level of expressed mRNA in the presence of chemical substance/The level of expressed mRNA in the absence of chemical substance: 0.9
